Reference: PMC10046369, “Low-Affinity/High-Selectivity Dopamine Transport Inhibition Sufficient to Rescue Cognitive Functions in the Aging Rat” (Biomolecules, 2023)

What was measured:
Assay in all cases: biochemical
Parameters in all cases: KINOMEscan competition binding panel, per cent of control
Conditions in all cases: read-out: %Ctrl @ 2800nM
[1] = target: T1, ABL1(F317L)-phosphorylated (Homo sapiens, UniProt P00519, F317L)
T1 construct: phosphorylated
Procedure, shortened: (§1)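 Competition binding panel (KINOMEscan) across 450 human kinases and disease-relevant mutants, run to the contractor's standard protocol. Values are % control: (test signal − positive control signal)/(negative control signal − positive control signal) × 100, with lower values indicating stronger binding.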

[2] = target: T2, ABL1(T315I)-nonphosphorylated (Homo sapiens, UniProt P00519, T315I)
T2 construct: nonphosphorylated
Procedure, shortened: as §1

[3] = target: ACVR1 (Homo sapiens, UniProt Q04771)
Procedure, shortened: as §1

[4] = target: T3, AMPK-alpha2 (Homo sapiens, UniProt P54646)
T3 construct: gene PRKAA2
Procedure, shortened: as §1

[5] = target: BLK (Homo sapiens, UniProt P51451)
Procedure, shortened: as §1

[6] = target: T4, CAMK1B (Homo sapiens, UniProt Q6P2M8)
T4 construct: gene PNCK
Procedure, shortened: as §1

[7] = target: CAMK2B (Homo sapiens, UniProt Q13554)
Procedure, shortened: as §1

[8] = target: CSF1R-autoinhibited (Homo sapiens, UniProt P07333)
Procedure, shortened: as §1

[9] = target: EPHB2 (Homo sapiens, UniProt P29323)
Procedure, shortened: as §1

[10] = target: T5, ERK5 (Homo sapiens, UniProt Q13164)
T5 construct: gene MAPK7
Procedure, shortened: as §1

[11] = target: FGFR1 (Homo sapiens, UniProt P11362)
Procedure, shortened: as §1

[12] = target: HIPK3 (Homo sapiens, UniProt Q9H422)
Procedure, shortened: as §1

[13] = target: T6, MEK2 (Homo sapiens, UniProt P36507)
T6 construct: gene MAP2K2
Procedure, shortened: as §1

[14] = target: MET(Y1235D) (Homo sapiens, UniProt P08581, Y1235D)
Procedure, shortened: as §1

[15] = target: NEK7 (Homo sapiens, UniProt Q8TDX7)
Procedure, shortened: as §1

[16] = target: PIK3CD (Homo sapiens, UniProt O00329)
Procedure, shortened: as §1

[17] = target: T7, PIP5K2B (Homo sapiens, UniProt P78356)
T7 construct: gene PIP4K2B
Procedure, shortened: as §1

[18] = target: PKMYT1 (Homo sapiens, UniProt Q99640)
Procedure, shortened: as §1

[19] = target: PLK3 (Homo sapiens, UniProt Q9H4B4)
Procedure, shortened: as §1

[20] = target: PRKCQ (Homo sapiens, UniProt Q04759)
Procedure, shortened: as §1

[21] = target: T8, PYK2 (Homo sapiens, UniProt Q14289)
T8 construct: gene PTK2B
Procedure, shortened: as §1

[22] = target: T9, RSK4(Kin.Dom.2-C-terminal) (Homo sapiens, UniProt Q9UK32)
T9 construct: gene RPS6KA6; Kin.Dom.2-C-terminal
Procedure, shortened: as §1

[23] = target: T10, SIK (Homo sapiens, UniProt P57059)
T10 construct: gene SIK1
Procedure, shortened: as §1

[24] = target: STK36 (Homo sapiens, UniProt Q9NRP7)
Procedure, shortened: as §1

[25] = target: T11, TRKB (Homo sapiens, UniProt Q16620)
T11 construct: gene NTRK2
Procedure, shortened: as §1

T11 sequence (Q16620 whole entry): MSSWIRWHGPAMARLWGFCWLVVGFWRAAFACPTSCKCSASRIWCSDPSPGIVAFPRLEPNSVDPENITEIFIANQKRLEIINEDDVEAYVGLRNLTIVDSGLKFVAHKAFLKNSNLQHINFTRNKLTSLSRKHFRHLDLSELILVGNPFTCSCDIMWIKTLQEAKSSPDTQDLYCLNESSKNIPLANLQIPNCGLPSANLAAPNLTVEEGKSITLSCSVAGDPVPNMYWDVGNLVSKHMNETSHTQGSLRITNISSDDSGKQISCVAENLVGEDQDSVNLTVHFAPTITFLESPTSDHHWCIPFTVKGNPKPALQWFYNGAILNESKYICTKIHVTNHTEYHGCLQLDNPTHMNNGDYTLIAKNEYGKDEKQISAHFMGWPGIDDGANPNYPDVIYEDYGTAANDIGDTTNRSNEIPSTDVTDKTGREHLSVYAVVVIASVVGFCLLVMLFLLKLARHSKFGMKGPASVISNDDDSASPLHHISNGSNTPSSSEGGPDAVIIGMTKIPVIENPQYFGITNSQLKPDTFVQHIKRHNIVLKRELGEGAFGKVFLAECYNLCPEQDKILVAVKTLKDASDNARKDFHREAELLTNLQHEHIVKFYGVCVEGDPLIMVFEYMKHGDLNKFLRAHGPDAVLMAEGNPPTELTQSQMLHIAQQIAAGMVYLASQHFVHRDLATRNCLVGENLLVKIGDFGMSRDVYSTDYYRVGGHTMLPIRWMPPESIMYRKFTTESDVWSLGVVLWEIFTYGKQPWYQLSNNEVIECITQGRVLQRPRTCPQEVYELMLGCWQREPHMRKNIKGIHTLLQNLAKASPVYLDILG
T6 sequence (P36507 whole entry): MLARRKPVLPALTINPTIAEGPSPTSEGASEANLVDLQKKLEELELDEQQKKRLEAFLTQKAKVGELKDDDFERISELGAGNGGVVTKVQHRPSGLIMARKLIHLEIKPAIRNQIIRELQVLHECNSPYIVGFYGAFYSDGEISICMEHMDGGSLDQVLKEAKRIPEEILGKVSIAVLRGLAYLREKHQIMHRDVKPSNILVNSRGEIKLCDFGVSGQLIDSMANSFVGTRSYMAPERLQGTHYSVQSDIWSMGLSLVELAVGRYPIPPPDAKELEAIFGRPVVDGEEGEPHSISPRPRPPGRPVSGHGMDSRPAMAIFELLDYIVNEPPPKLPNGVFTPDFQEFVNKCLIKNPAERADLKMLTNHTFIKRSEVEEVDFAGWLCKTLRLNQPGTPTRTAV
MET(Y1235D), sequence (P08581 whole entry Y1235D): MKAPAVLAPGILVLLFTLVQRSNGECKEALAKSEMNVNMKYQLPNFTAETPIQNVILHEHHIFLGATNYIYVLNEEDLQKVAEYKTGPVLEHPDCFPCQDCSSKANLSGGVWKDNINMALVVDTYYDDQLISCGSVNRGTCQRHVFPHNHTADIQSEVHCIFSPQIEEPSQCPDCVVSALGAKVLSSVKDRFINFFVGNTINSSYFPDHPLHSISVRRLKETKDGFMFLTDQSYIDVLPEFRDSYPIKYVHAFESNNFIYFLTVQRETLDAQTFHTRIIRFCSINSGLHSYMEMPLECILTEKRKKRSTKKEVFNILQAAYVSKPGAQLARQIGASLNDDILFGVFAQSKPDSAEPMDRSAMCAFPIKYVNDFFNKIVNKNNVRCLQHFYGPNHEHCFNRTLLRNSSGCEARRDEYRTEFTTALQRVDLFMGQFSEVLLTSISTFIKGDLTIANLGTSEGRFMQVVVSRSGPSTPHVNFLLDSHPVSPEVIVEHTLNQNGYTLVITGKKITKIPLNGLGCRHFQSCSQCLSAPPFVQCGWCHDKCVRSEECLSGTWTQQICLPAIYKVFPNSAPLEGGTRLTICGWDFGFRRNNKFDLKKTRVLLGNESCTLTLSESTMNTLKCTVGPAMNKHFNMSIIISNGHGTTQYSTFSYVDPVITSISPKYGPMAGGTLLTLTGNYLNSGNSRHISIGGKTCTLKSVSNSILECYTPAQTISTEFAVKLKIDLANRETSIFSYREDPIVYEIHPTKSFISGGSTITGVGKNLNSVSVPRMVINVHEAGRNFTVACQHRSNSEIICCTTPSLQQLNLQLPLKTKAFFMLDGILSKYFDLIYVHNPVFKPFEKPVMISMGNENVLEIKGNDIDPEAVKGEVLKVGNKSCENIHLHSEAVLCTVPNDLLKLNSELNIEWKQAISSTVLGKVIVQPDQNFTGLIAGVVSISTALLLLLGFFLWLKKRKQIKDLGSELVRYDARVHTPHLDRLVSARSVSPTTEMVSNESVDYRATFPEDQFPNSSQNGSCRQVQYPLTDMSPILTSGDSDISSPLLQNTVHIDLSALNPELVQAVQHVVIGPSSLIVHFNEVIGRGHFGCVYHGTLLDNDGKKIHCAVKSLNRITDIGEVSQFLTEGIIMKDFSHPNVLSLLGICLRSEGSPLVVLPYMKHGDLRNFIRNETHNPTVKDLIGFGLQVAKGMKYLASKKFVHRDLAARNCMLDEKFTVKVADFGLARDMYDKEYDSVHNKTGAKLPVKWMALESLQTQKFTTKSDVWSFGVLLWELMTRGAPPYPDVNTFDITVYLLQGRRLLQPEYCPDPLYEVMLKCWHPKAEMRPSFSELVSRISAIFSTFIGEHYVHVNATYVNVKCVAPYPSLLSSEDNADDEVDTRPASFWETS
T4 sequence (Q6P2M8 whole entry): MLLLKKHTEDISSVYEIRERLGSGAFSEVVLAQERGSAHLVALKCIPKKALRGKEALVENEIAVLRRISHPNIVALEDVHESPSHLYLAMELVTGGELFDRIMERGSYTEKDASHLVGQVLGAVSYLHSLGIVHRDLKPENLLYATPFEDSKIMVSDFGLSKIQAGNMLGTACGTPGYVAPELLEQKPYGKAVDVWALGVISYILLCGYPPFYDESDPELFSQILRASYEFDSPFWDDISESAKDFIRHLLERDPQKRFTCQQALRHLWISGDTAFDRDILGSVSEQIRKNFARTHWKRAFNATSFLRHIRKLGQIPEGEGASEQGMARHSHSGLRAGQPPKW
T8 sequence (Q14289 whole entry): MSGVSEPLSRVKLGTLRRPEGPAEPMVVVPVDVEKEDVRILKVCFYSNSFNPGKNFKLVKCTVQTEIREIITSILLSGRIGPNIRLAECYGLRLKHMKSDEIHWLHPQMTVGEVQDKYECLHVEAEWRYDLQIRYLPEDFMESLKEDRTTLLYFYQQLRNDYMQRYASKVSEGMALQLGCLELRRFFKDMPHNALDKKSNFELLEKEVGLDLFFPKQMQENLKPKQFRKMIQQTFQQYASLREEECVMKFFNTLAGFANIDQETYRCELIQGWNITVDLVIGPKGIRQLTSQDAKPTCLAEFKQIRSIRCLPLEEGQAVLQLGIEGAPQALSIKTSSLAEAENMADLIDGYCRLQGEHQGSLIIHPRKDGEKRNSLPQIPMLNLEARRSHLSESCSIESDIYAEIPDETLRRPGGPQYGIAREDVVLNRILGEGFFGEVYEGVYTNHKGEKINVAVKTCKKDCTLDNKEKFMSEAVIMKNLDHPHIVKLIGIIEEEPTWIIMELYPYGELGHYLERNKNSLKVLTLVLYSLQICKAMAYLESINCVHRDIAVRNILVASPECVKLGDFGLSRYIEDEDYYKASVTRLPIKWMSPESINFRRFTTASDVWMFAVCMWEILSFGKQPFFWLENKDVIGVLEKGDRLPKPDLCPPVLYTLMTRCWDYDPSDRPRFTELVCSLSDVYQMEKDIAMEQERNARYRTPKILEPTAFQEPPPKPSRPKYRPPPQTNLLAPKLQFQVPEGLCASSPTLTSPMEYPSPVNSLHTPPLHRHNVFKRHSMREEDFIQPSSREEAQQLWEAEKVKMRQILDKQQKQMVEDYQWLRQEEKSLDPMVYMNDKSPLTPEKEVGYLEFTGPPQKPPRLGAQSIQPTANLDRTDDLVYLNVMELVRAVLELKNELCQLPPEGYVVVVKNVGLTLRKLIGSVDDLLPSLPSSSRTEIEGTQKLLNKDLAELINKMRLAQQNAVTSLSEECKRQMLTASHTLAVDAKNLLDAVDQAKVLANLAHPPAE
EPHB2, sequence (P29323 whole entry): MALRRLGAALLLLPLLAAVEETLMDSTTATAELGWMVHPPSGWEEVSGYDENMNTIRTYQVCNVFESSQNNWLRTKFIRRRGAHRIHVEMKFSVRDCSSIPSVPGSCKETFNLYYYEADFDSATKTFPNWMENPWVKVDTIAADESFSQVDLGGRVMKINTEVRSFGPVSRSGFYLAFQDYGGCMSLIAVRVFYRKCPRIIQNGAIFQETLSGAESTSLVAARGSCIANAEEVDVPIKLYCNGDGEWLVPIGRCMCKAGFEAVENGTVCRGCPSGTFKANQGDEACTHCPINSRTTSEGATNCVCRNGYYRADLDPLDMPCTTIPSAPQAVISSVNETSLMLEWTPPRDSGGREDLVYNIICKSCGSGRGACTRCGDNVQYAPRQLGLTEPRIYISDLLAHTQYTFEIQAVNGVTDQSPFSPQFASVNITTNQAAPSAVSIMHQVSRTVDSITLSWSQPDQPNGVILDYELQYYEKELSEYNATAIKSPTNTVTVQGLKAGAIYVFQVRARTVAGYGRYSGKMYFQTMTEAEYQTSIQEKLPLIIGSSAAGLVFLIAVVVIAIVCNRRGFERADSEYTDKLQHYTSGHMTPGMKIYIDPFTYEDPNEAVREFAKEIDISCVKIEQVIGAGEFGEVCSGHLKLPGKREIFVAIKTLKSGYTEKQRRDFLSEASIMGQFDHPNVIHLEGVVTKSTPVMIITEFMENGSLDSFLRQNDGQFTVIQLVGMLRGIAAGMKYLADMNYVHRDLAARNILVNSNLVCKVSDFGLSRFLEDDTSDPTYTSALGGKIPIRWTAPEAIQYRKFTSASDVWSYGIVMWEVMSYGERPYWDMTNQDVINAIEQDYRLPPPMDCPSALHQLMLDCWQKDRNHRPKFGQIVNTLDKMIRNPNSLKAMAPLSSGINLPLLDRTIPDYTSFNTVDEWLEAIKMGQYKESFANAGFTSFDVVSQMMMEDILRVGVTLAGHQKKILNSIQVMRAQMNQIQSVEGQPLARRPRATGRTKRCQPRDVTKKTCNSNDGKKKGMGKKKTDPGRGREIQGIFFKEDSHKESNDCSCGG

Work on `[O-][S@@+](Cc1cncs1)C(c1ccccc1)c1ccccc1` [S-CE-123, (S)-5-((Benzhydrylsulfinyl)Methyl)Thiazole] yielded a remaining binding at 2.8 µM [1] of 100%, a remaining binding at 2.8 µM [2] of 100% and a remaining binding at 2.8 µM [3] of 99%. The remaining binding at 2.8 µM [4] was 97%, the remaining binding at 2.8 µM [5] was 90% and the remaining binding at 2.8 µM [6] was 100%. It also gave a remaining binding at 2.8 µM [7] of 87%, a remaining binding at 2.8 µM [8] of 100% and a remaining binding at 2.8 µM [9] of 89%. The remaining binding at 2.8 µM [10] was 91%, the remaining binding at 2.8 µM [11] was 100% and the remaining binding at 2.8 µM [12] was 91%. For the same compound, the remaining binding at 2.8 µM [13] was 93%, the remaining binding at 2.8 µM [14] was 99% and the remaining binding at 2.8 µM [15] was 100%. The remaining binding at 2.8 µM [16] was 86%, the remaining binding at 2.8 µM [17] was 100% and the remaining binding at 2.8 µM [18] was 88%. The remaining binding at 2.8 µM [19] was 95%, the remaining binding at 2.8 µM [20] was 100% and the remaining binding at 2.8 µM [21] was 100%. It also gave a remaining binding at 2.8 µM [22] of 94%, a remaining binding at 2.8 µM [23] of 100% and a remaining binding at 2.8 µM [24] of 88%. For the same compound, the remaining binding at 2.8 µM [25] was 100%.
